Common to all, as to assay: AK assay 384-well format, Prestwick library screening
The subject of assay [1] is K. pneumoniae. Type of assay: cell-based, Klebsiella pneumoniae. Particulars: 50 μM final drug concentration; for fold induction at 50 µM: Klebsiella pneumoniae, 3 h.
Assay [2] concerns P. aeruginosa. Type of assay: cell-based, Pseudomonas aeruginosa. Particulars: 50 μM final drug concentration; for fold induction at 50 µM: Pseudomonas aeruginosa, 3 h.
Assay [3] relates to E. coli. The class given is cell-based, Escherichia coli. As to conditions: 50 μM final drug concentration; for fold induction at 50 µM: Escherichia coli, 3 h.
Assay [4] has as its system A. baumannii strain 98-37-09. Type of assay: cell-based, Acinetobacter baumannii. As to conditions: 50 μM final drug concentration; for fold induction at 50 µM: Acinetobacter baumannii, 983709, 3 h.
For assay [5], the system named is E. faecium. Type of assay: cell-based, Enterococcus faecium. As to conditions: 50 μM final drug concentration; for fold induction at 50 µM: Enterococcus faecium, 3 h.
Assay [6] deals with S. aureus strain USA300-0114. The class given is cell-based, Staphylococcus aureus. Particulars: 50 μM final drug concentration; for fold induction at 50 µM: Staphylococcus aureus, USA300, 3 h.
Assay [7] concerns E. cloacae. The class given is cell-based, Enterobacter cloacae. Particulars: 50 μM final drug concentration; for fold induction at 50 µM: Enterobacter cloacae, 3 h.
[8] abbreviates: 384-well format, cutoff for positive-scoring molecules 3-fold increase, read-out: AK-based Prestwick Library Screening Results, K. pneumoniae (increase in extracellular AK activity).
Where [9] appears, read: 384-well format, cutoff for positive-scoring molecules 3-fold increase, read-out: AK-based Prestwick Library Screening Results, P. aeruginosa (increase in extracellular AK activity).
[10] abbreviates: 384-well format, cutoff for positive-scoring molecules 3-fold increase, read-out: AK-based Prestwick Library Screening Results, E. coli (increase in extracellular AK activity).
Where [11] appears, read: 384-well format, cutoff for positive-scoring molecules 3-fold increase, read-out: AK-based Prestwick Library Screening Results, A. baumannii (increase in extracellular AK activity).
[12] abbreviates: 384-well format, cutoff for positive-scoring molecules 3-fold increase, read-out: AK-based Prestwick Library Screening Results, E. faecium (increase in extracellular AK activity).
[13] abbreviates: 384-well format, cutoff for positive-scoring molecules 3-fold increase, read-out: AK-based Prestwick Library Screening Results, S. aureus (increase in extracellular AK activity).
[14] abbreviates: 384-well format, cutoff for positive-scoring molecules 3-fold increase, read-out: AK-based Prestwick Library Screening Results, E. cloacae (increase in extracellular AK activity).
Setting [15] is: planktonic K. pneumoniae, […], read-out: AK-based Prestwick Library Screening Results, K. pneumoniae (increase in extracellular AK activity).
The mark [16] stands for this setting: planktonic P. aeruginosa, […], read-out: AK-based Prestwick Library Screening Results, P. aeruginosa (increase in extracellular AK activity).
[17] abbreviates: planktonic E. coli, […], read-out: AK-based Prestwick Library Screening Results, E. coli (increase in extracellular AK activity).
Setting [18] is: planktonic A. baumannii, […], read-out: AK-based Prestwick Library Screening Results, A. baumannii (increase in extracellular AK activity).
[19] abbreviates: planktonic E. faecium, […], read-out: AK-based Prestwick Library Screening Results, E. faecium (increase in extracellular AK activity).
Where [20] appears, read: planktonic S. aureus, […], read-out: AK-based Prestwick Library Screening Results, S. aureus (increase in extracellular AK activity).
[21] abbreviates: planktonic E. cloacae, […], read-out: AK-based Prestwick Library Screening Results, E. cloacae (increase in extracellular AK activity).

Structures can show the parent of a compound that is named as a salt. Where two headings read alike, the source gives them in different places.

In the case of `CC(=O)Oc1ccccc1C(=O)Oc1ccccc1C(=O)O` [Acetylsalicylsalicylic acid], the fold induction at 50 µM in assay [1] (setting [8]) stood at 0.6; in assay [2] (setting [9]), 0.6; in assay [3] (setting [10]) it was 0.6; in assay [4] (setting [11]), 0.7; in assay [5] (setting [12]), 1; in assay [6] (setting [13]), 0.7. Moreover, in assay [7] (setting [14]), the fold induction at 50 µM was 0.8.
Take `CCN1C[C@]2(COC)[C@H](O)C[C@H](OC)[C@@]34[C@@H]5C[C@@]6(O)[C@H](OC(=O)c7ccccc7)[C@@H]5[C@@](OC(C)=O)([C@@H]([C@H](OC)[C@H]23)[C@@H]14)[C@@H](O)[C@@H]6OC` [Aconitine]: the fold induction at 50 µM in assay [1] (setting [15]) amounted to 0.5; in assay [2] (setting [16]), 0.5; in assay [3] (setting [17]) it was 0.6; in assay [4] (setting [18]), 0.6; in assay [5] (setting [19]), 0.9; in assay [6] (setting [20]) it was 0.5. Moreover, the fold induction at 50 µM in assay [7] (setting [21]) turned out to be 0.6.
As for `Nc1nc2c(ncn2COCCO)c(=O)[nH]1` [Acyclovir], the fold induction at 50 µM in assay [1] (setting [8]) turned out to be 0.5; in assay [2] (setting [9]) it was 0.4; in assay [3] (setting [10]), 0.5; in assay [4] (setting [11]), 0.4; in assay [5] (setting [12]), 0.9; in assay [6] (setting [13]), 0.5. Also, in assay [7] (setting [14]), the fold induction at 50 µM is 0.3.
Turning to `NC12CC3CC(CC(C3)C1)C2.NC12CC3CC(CC(C3)C1)C2.O=C(O)/C=C/C(=O)O` [Adamantamine fumarate], the “AK-based Prestwick Library Screening Results: K. pneumoniae (increase in extracellular AK activity)” value in assay [1] (planktonic K. pneumoniae, 384-well, cutoff for positive-scoring molecules 3-fold increase) is recorded as 0.5. In addition, the “AK-based Prestwick Library Screening Results: P. aeruginosa (increase in extracellular AK activity)” value in assay [2] (planktonic P. aeruginosa, 384-well, cutoff for positive-scoring molecules 3-fold increase) was 0.4. Besides, the “AK-based Prestwick Library Screening Results: E. coli (increase in extracellular AK activity)” value in assay [3] (planktonic E. coli, 384-well, cutoff for positive-scoring molecules 3-fold increase) is 0.5. For the same compound, in assay [4] (planktonic A. baumannii, 384-well, cutoff for positive-scoring molecules 3-fold increase), the “AK-based Prestwick Library Screening Results: A. baumannii (increase in extracellular AK activity)” value was 0.5. Further, the “AK-based Prestwick Library Screening Results: E. faecium (increase in extracellular AK activity)” value in assay [5] (planktonic E. faecium, 384-well, cutoff for positive-scoring molecules 3-fold increase) was determined as 0.9. Moreover, the “AK-based Prestwick Library Screening Results: S. aureus (increase in extracellular AK activity)” value in assay [6] (planktonic S. aureus, 384-well, cutoff for positive-scoring molecules 3-fold increase) was determined as 0.4. Besides, the “AK-based Prestwick Library Screening Results: E. cloacae (increase in extracellular AK activity)” value in assay [7] (planktonic E. cloacae, 384-well, cutoff for positive-scoring molecules 3-fold increase) is given as 0.4.
Turning to `Nc1ncnc2c1ncn2[C@@H]1O[C@H](COP(=O)(O)O)[C@@H](O)[C@H]1O` [Adenosine 5′-monophosphate monohydrate], the fold induction at 50 µM came out at 0.6 in assay [1] (setting [15]); 0.8 in assay [2] (setting [16]); 0.8 in assay [3] (setting [17]); 0.7 in assay [4] (setting [18]); 0.8 in assay [5] (setting [19]); 0.6 in assay [6] (setting [20]). The fold induction at 50 µM in assay [7] (setting [21]) was determined as 1.2.
As to `CCN(CC)CCOC(=O)C(c1ccccc1)c1ccccc1` [Adiphenine hydrochloride], the fold induction at 50 µM in assay [1] (planktonic K. pneumoniae, 384-well, cutoff for positive-scoring molecules 3-fold increase, read-out: AK-based Prestwick Library Screening Results: K. pneumoniae (increase in extracellular AK activity)) worked out at 1; in assay [2] (planktonic P. aeruginosa, 384-well, cutoff for positive-scoring molecules 3-fold increase, read-out: AK-based Prestwick Library Screening Results: P. aeruginosa (increase in extracellular AK activity)), 0.9; in assay [3] (planktonic E. coli, 384-well, cutoff for positive-scoring molecules 3-fold increase, read-out: AK-based Prestwick Library Screening Results: E. coli (increase in extracellular AK activity)), 1.2; in assay [4] (planktonic A. baumannii, 384-well, cutoff for positive-scoring molecules 3-fold increase, read-out: AK-based Prestwick Library Screening Results: A. baumannii (increase in extracellular AK activity)), 1.3; in assay [5] (planktonic E. faecium, 384-well, cutoff for positive-scoring molecules 3-fold increase, read-out: AK-based Prestwick Library Screening Results: E. faecium (increase in extracellular AK activity)), 1; in assay [6] (planktonic S. aureus, 384-well, cutoff for positive-scoring molecules 3-fold increase, read-out: AK-based Prestwick Library Screening Results: S. aureus (increase in extracellular AK activity)), 1.3. In assay [7] (planktonic E. cloacae, 384-well, cutoff for positive-scoring molecules 3-fold increase, read-out: AK-based Prestwick Library Screening Results: E. cloacae (increase in extracellular AK activity)), the fold induction at 50 µM is 1.5.
As for `C[C@]12CCC(=O)C=C1CC[C@@H]1[C@@H]2C(=O)C[C@]2(C)C(=O)CC[C@@H]12` [Adrenosterone], in assay [1] (planktonic, […]), the “AK-based Prestwick Library Screening Results, K. pneumoniae (fold increase in extracellular AK activity)” value stood at 0.6. In assay [2] (planktonic, […]), the “AK-based Prestwick Library Screening Results, P. aeruginosa (fold increase in extracellular AK activity)” value amounted to 0.6. In assay [3] (planktonic, […]), the “AK-based Prestwick Library Screening Results, E. coli (fold increase in extracellular AK activity)” value is reported as 0.7. In addition, the “AK-based Prestwick Library Screening Results, A. baumannii (fold increase in extracellular AK activity)” value in assay [4] (planktonic, […]) is given as 0.8. For the same compound, in assay [5] (planktonic, […]), the “AK-based Prestwick Library Screening Results, E. faecium (fold increase in extracellular AK activity)” value was determined as 0.9. In assay [6] (planktonic, […]), the “AK-based Prestwick Library Screening Results, S. aureus (fold increase in extracellular AK activity)” value is 0.6. Besides, the “AK-based Prestwick Library Screening Results, E. cloacae (fold increase in extracellular AK activity)” value in assay [7] (planktonic, […]) was determined as 1.2.
As to `COC(=O)C1=CO[C@@H](C)[C@H]2CN3CCc4c([nH]c5ccccc45)[C@@H]3C[C@H]12.Cl` [Ajmalicine hydrochloride], the “AK-based Prestwick Library Screening Results, K. pneumoniae (increase in extracellular AK activity)” value in assay [1] (planktonic K. pneumoniae, cutoff for positive-scoring molecules 3-fold increase) is 0.7. Moreover, the “AK-based Prestwick Library Screening Results, P. aeruginosa (increase in extracellular AK activity)” value in assay [2] (planktonic P. aeruginosa, cutoff for positive-scoring molecules 3-fold increase) turned out to be 0.9. Besides, the “AK-based Prestwick Library Screening Results, E. coli (increase in extracellular AK activity)” value in assay [3] (planktonic E. coli, cutoff for positive-scoring molecules 3-fold increase) was 0.9. Also, the “AK-based Prestwick Library Screening Results, A. baumannii (increase in extracellular AK activity)” value in assay [4] (planktonic A. baumannii, cutoff for positive-scoring molecules 3-fold increase) is on record as 0.9. In assay [5] (planktonic E. faecium, cutoff for positive-scoring molecules 3-fold increase), the “AK-based Prestwick Library Screening Results, E. faecium (increase in extracellular AK activity)” value was determined as 0.9. Besides, the “AK-based Prestwick Library Screening Results, S. aureus (increase in extracellular AK activity)” value in assay [6] (planktonic S. aureus, cutoff for positive-scoring molecules 3-fold increase) was determined as 0.5. For the same compound, in assay [7] (planktonic E. cloacae, cutoff for positive-scoring molecules 3-fold increase), the “AK-based Prestwick Library Screening Results, E. cloacae (increase in extracellular AK activity)” value is recorded as 1.2.
For the compound `CC[C@H]1[C@@H]2C[C@H]3[C@@H]4N(C)c5ccccc5[C@]45C[C@@H]([C@H]2[C@H]5O)N3[C@@H]1O` [Ajmaline], the fold induction at 50 µM in assay [1] (planktonic, […], read-out: AK-based Prestwick Library Screening Results, K. pneumoniae (fold increase in extracellular AK activity)) was determined as 0.9; in assay [2] (planktonic, […], read-out: AK-based Prestwick Library Screening Results, P. aeruginosa (fold increase in extracellular AK activity)) it was 1.1; in assay [3] (planktonic, […], read-out: AK-based Prestwick Library Screening Results, E. coli (fold increase in extracellular AK activity)), 1.2; in assay [4] (planktonic, […], read-out: AK-based Prestwick Library Screening Results, A. baumannii (fold increase in extracellular AK activity)), 1.1; in assay [5] (planktonic, […], read-out: AK-based Prestwick Library Screening Results, E. faecium (fold increase in extracellular AK activity)), 1.1; in assay [6] (planktonic, […], read-out: AK-based Prestwick Library Screening Results, S. aureus (fold increase in extracellular AK activity)), 1. Moreover, the fold induction at 50 µM in assay [7] (planktonic, […], read-out: AK-based Prestwick Library Screening Results, E. cloacae (fold increase in extracellular AK activity)) was determined as 1.6.

The record behind these values is patent publication US10004701B2, “Methods and compositions for treating infection” (UNIVERSITY OF ROCHESTER, priority 2012, dated 2018).
